Test results from ChEMBL document CHEMBL5620359, “Discovery of 2,5-disubstituted furan derivatives featuring a benzamide motif for overcoming P-glycoprotein mediated multidrug resistance in MCF-7/ADR cell” (Eur J Med Chem, 2023).
Active and inactive are the calls of the source. No cut-off for these calls is given here.

Columns and labels:
NCI/ADR-RES [1] = experiment: Cytotoxicity against human MCF7ADR cells assessed as cell survival rate at 1 uM incubated for 48 hrs by CCK8 assay relative to control; format: functional
NCI/ADR-RES [2] = experiment: Cytotoxicity against human MCF7ADR cells assessed as cell survival rate at 5 uM incubated for 48 hrs by CCK8 assay relative to control; format: functional
NCI/ADR-RES [3] = experiment: Reversal activity against doxorubicin-mediated resistance in human MCF7ADR cells assessed as reversal fold by measuring ratio of doxorubicin IC50 to doxorubicin IC50 in presence of test compound at 1 uM incubated for 48 hrs by CCK8 assay; format: functional
MCF7 [4] = experiment: Antitumor activity against human MCF7 cells incubated for 48 hrs by CCK8 assay; format: functional, cell-based; details: MCF7, 48 h
[5] = Toxicity in nude BALB/c mouse xenografted with human MCF7ADR cells assessed as pathological change in spleen at 3 mg/kg, ip for 14 days administered every 2 days by H and E staining based analysis; format: organism-based; details: in vivo, 336 h, time 14 day
[6] = Toxicity in nude BALB/c mouse xenografted with human MCF7ADR cells assessed as reduction in liver volume at 3 mg/kg, ip for 14 days administered every 2 days by H and E staining based analysis; format: organism-based; details: in vivo, 336 h, time 14 day
[7] = Toxicity in nude BALB/c mouse xenografted with human MCF7ADR cells assessed as increase in nuclear density in kidney at 3 mg/kg, ip for 14 days administered every 2 days by H and E staining based analysis; format: organism-based; details: in vivo, 336 h, time 14 day
[8] = Toxicity in nude BALB/c mouse xenografted with human MCF7ADR cells assessed as hyperplasia in spleen at 3 mg/kg, ip for 14 days administered every 2 days by H and E staining based analysis; format: organism-based; details: in vivo, 336 h, time 14 day
[9] = Toxicity in nude BALB/c mouse xenografted with human MCF7ADR cells assessed as reduction in spleen volume at 3 mg/kg, ip for 14 days administered every 2 days by H and E staining based analysis; format: organism-based; details: in vivo, 336 h, time 14 day
[10] = Toxicity in nude BALB/c mouse xenografted with human MCF7ADR cells assessed as increase in nuclear density in liver at 3 mg/kg, ip for 14 days administered every 2 days by H and E staining based analysis; format: organism-based; details: in vivo, 336 h, time 14 day
[11] = Toxicity in nude BALB/c mouse xenografted with human MCF7ADR cells assessed as body weight loss at 3 mg/kg, ip for 14 days administered every 2 days; format: organism-based; details: in vivo, 336 h, time 14 day
NCI/ADR-RES [12] = experiment: Reversal activity against doxorubicin-mediated resistance in human MCF7ADR cells assessed as reversal fold by measuring ratio of doxorubicin IC50 to doxorubicin IC50 in presence of test compound at 0.5 uM incubated for 48 hrs by CCK8 assay; format: functional
NCI/ADR-RES [13] = experiment: Antitumor activity against human MCF7ADR cells xenografted in nude BALB/c mouse assessed as tumor size reduction at 10 mg/kg, ip for 14 days administered every 2 days; format: functional, organism-based; details: time 14.0 day
[14] = target: T1, ATP-dependent translocase ABCB1 (Homo sapiens, UniProt P08183); experiment: Inhibition of P-gp in human MCF7ADR cells assessed as increase in Rh123 accumulation at 0.1 to 10 uM incubated for 4 hrs by fluorescence microscopy; format: cell-based; details: dose 0.1-10 µM
T1 sequence (P08183 whole entry): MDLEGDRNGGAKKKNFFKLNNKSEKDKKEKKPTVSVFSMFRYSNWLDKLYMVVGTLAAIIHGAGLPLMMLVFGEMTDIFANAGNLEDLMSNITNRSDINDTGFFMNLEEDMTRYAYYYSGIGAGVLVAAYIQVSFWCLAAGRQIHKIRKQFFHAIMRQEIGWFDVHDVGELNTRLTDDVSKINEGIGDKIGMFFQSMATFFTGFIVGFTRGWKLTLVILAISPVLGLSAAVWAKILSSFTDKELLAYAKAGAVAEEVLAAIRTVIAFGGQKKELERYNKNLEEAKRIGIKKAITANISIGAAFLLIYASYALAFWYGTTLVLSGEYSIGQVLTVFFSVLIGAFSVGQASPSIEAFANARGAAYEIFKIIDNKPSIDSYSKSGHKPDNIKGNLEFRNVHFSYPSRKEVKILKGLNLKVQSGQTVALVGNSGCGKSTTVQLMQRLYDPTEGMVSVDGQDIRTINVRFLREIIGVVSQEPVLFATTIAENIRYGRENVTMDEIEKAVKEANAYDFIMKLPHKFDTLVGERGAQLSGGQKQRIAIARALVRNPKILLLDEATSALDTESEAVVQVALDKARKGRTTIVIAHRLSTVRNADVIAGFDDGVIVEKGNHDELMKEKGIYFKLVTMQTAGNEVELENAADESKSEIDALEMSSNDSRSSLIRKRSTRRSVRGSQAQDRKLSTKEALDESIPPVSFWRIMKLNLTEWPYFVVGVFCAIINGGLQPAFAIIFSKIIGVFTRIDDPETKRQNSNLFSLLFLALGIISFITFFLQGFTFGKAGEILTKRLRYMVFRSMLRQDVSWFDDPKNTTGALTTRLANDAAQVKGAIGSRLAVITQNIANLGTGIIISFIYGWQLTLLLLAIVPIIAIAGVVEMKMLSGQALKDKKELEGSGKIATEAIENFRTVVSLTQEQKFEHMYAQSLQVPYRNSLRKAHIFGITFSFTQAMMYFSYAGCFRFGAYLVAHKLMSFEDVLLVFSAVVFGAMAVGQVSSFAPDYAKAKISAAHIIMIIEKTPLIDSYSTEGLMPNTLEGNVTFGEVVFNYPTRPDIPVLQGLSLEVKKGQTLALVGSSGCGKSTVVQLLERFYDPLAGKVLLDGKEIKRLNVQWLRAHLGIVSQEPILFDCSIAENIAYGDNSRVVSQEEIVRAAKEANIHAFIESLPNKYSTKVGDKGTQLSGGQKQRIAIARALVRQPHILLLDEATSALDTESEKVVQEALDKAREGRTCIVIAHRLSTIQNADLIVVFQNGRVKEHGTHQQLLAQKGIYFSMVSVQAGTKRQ

NCI/ADR-RES [15] = experiment: Reversal activity against doxorubicin-mediated resistance in human MCF7ADR cells assessed as reversal fold by measuring ratio of doxorubicin IC50 to doxorubicin IC50 in presence of test compound at 0.1 uM incubated for 48 hrs by CCK8 assay; format: functional
[16] = target: T1, ATP-dependent translocase ABCB1; experiment: Inhibition of P-gp in human MCF7ADR cells assessed as increase in Rh123 accumulation at 0.1 to 10 uM incubated for 4 hrs by flow cytometry; format: cell-based; details: dose 0.1-10 µM
[17] = Toxicity in nude BALB/c mouse xenografted with human MCF7ADR cells assessed as morphological change in lung at 10 mg/kg, ip for 14 days administered every 2 days by H and E staining based analysis; format: organism-based; details: in vivo, 336 h, time 14 day
[18] = Toxicity in nude BALB/c mouse xenografted with human MCF7ADR cells assessed as morphological change in spleen at 10 mg/kg, ip for 14 days administered every 2 days by H and E staining based analysis; format: organism-based; details: in vivo, 336 h, time 14 day
NCI/ADR-RES [19] = experiment: Reversal activity against doxorubicin-mediated resistance in human MCF7ADR cells assessed as reversal fold by measuring ratio of doxorubicin IC50 to doxorubicin IC50 in presence of test compound at 5 uM incubated for 48 hrs by CCK8 assay; format: functional
[20] = Toxicity in nude BALB/c mouse xenografted with human MCF7ADR cells assessed as morphological change in kidney at 10 mg/kg, ip for 14 days administered every 2 days by H and E staining based analysis; format: organism-based; details: in vivo, 336 h, time 14 day
NCI/ADR-RES [21] = experiment: Antitumor activity against human MCF7ADR cells xenografted in nude BALB/c mouse assessed as tumor weight reduction at 10 mg/kg, ip for 14 days administered every 2 days; format: functional, organism-based; details: time 14.0 day
MCF7 [22] = experiment: Cytotoxicity against human MCF7 cells assessed as cell survival rate at 5 uM incubated for 48 hrs by CCK8 assay relative to control; format: functional
NCI/ADR-RES [23] = experiment: Reversal activity against doxorubicin-mediated resistance in human MCF7ADR cells xenografted in nude BALB/c mouse at 10 mg/kg, ip for 14 days administered every 2 days; format: functional, organism-based; details: time 14.0 day
[24] = Toxicity in nude BALB/c mouse xenografted with human MCF7ADR cells assessed as body weight loss at 10 mg/kg, ip for 14 days administered every 2 days; format: organism-based; details: in vivo, 336 h, time 14 day
[25] = Toxicity in nude BALB/c mouse xenografted with human MCF7ADR cells assessed as body weight loss at 10 mg/kg, ip for 14 days administered every 2 days in presence of doxorubicin; format: organism-based; details: in vivo, 336 h, time 14 day
[26] = Toxicity in nude BALB/c mouse xenografted with human MCF7ADR cells assessed as morphological change in liver at 10 mg/kg, ip for 14 days administered every 2 days by H and E staining based analysis; format: organism-based; details: in vivo, 336 h, time 14 day
[27] = Toxicity in nude BALB/c mouse xenografted with human MCF7ADR cells assessed as morphological change in heart at 10 mg/kg, ip for 14 days administered every 2 days by H and E staining based analysis; format: organism-based; details: in vivo, 336 h, time 14 day
NCI/ADR-RES [28] = experiment: Reversal activity against daunorubicin-mediated resistance in human MCF7ADR cells assessed as reversal fold by measuring ratio of daunorubicin IC50 to daunorubicin IC50 in presence of test compound at 5 uM incubated for 48 hrs by CCK8 assay; format: functional
NCI/ADR-RES [29] = experiment: Reversal activity against paclitaxel-mediated resistance in human MCF7ADR cells assessed as reversal fold by measuring ratio of paclitaxel IC50 to paclitaxel IC50 in presence of test compound at 5 uM incubated for 48 hrs by CCK8 assay; format: functional
NCI/ADR-RES [30] = experiment: Antitumor activity against human MCF7ADR cells xenografted in nude BALB/c mouse assessed as tumor volume reduction at 10 mg/kg, ip for 14 days administered every 2 days; format: functional, organism-based; details: time 14.0 day
NCI/ADR-RES [31] = experiment: Reversal activity against vincristine-mediated resistance in human MCF7ADR cells assessed as reversal fold by measuring ratio of vincristine IC50 to vincristine IC50 in presence of test compound at 5 uM incubated for 48 hrs by CCK8 assay; format: functional
NCI/ADR-RES [32] = experiment: Reversal activity against doxorubicin-mediated resistance in 3D spheroid model of human MCF7ADR cells assessed as reduction in tumor spheroid volume at 5 uM incubated for 9 days by inverted microscopy; format: functional, cell-based; details: time 9.0 day
NCI/ADR-RES [33] = experiment: Downregulation of P-gp expression in human MCF7ADR cells at 0.1 to 10 uM incubated for 48 hrs by Western blot analysis; format: functional, cell-based; details: dose 0.1-10 µM

## COc1cc2c(cc1OC)CN(C(=O)c1ccc(-c3ccc(NC(=O)c4cccs4)cc3)o1)CC2
NCI/ADR-RES [1]
  Activity: 92.3%
NCI/ADR-RES [2]
  Activity: 26%

## COc1cc2c(cc1OC)CN(C(=O)c1ccc(-c3ccc(NC(=O)c4cccnc4)cc3)o1)CC2
NCI/ADR-RES [3]
  fold change (FC): 2.2
NCI/ADR-RES [1]
  Activity: 72.4%
NCI/ADR-RES [2]
  Activity: 14.7%

## CC[C@]1(O)C[C@H]2CN(CCc3c([nH]c4ccccc34)[C@@](C(=O)OC)(c3cc4c(cc3OC)N(C=O)[C@H]3[C@@](O)(C(=O)OC)[C@H](OC(C)=O)[C@]5(CC)C=CCN6CC[C@]43[C@@H]65)C2)C1 [VINCRISTINE]
MCF7 [4]
  IC50: 900 nM

## COc1cccc2c1C(=O)c1c(O)c3c(c(O)c1C2=O)C[C@@](O)(C(C)=O)C[C@@H]3O[C@H]1C[C@H](N)[C@H](O)[C@H](C)O1 [DAUNORUBICIN]
MCF7 [4]
  IC50: 980 nM

## COc1cccc2c1C(=O)c1c(O)c3c(c(O)c1C2=O)C[C@@](O)(C(=O)CO)C[C@@H]3O[C@H]1C[C@H](N)[C@H](O)[C@H](C)O1 [DOXORUBICIN]
[5]
  Activity: Toxic
[6]
  Activity: Toxic
[7]
  Activity: Toxic
[8]
  Activity: Toxic
[9]
  Activity: Toxic
[10]
  Activity: Toxic
[11]
  Activity: Toxic

## COc1cc2c(cc1OC)CN(C(=O)c1ccc(-c3ccc(NC(=O)c4ccco4)cc3)o1)CC2
NCI/ADR-RES [1]
  Activity: 80.6%
NCI/ADR-RES [2]
  Activity: 11.3%

## CC(=O)O[C@H]1C(=O)[C@@]2(C)[C@H]([C@H](OC(=O)c3ccccc3)[C@]3(O)C[C@H](OC(=O)[C@H](O)[C@@H](NC(=O)c4ccccc4)c4ccccc4)C(C)=C1C3(C)C)[C@]1(OC(C)=O)CO[C@@H]1C[C@@H]2O [PACLITAXEL]
MCF7 [4]
  IC50: 550 nM

## COc1ccc(C(=O)Nc2ccc(-c3ccc(C(=O)N4CCc5cc(OC)c(OC)cc5C4)o3)cc2)cc1
NCI/ADR-RES [12]
  fold change (FC): 8.8
NCI/ADR-RES [13]
  Activity: inactive
[14]
  inhibition (INH): Dose-Dependent Effect
NCI/ADR-RES [3]
  fold change (FC): 110.5
NCI/ADR-RES [15]
  fold change (FC): 3.3
[16]
  inhibition (INH): Dose-Dependent Effect
[17]
  Activity: Non-Toxic
[18]
  Activity: Non-Toxic
NCI/ADR-RES [19]
  fold change (FC): 565
[20]
  Activity: Non-Toxic
NCI/ADR-RES [21]
  Activity: inactive
MCF7 [22]
  Activity: 80.4%
NCI/ADR-RES [23]
  Activity: Active
[24]
  Activity: Non-Toxic
NCI/ADR-RES [2]
  Activity: 80.1%
[25]
  Activity: Toxic
[26]
  Activity: Non-Toxic
[27]
  Activity: Non-Toxic
NCI/ADR-RES [28]
  fold change (FC): 143.4
NCI/ADR-RES [29]
  fold change (FC): 158.6
NCI/ADR-RES [30]
  Activity: inactive
NCI/ADR-RES [31]
  fold change (FC): 18.9
NCI/ADR-RES [32]
  Activity: Active
NCI/ADR-RES [33]
  Activity: inactive
